Data from patent US20080311045A1, “Polymersomes for Use in Acoustically Mediated Intracellular Drug Delivery in vivo” (Biovaluation & Analysis, Inc., priority 2007, published 2008).

What was measured:
[1] = Laser-photobleaching lipid probe diffusivity in membranes; type: physicochemical
[2] = Micropipette aspiration of polymersome membranes (elastic moduli, rupture, toughness); type: physicochemical; settings: micropipette aspiration at 23° C.
Protocol: A tool that has been used to measure many of the material properties of bilayer vesicles is, for example, “micropipette aspiration.” In micropipette aspiration, the rheology and material properties of micron-sized objects are measured using glass pipettes. Small, micron diameter pipettes are used to pick up, deform, and manipulate micron-sized objects, such as giant lipid vesicles. The aspiration pressure is controlled by manometers, in which the hydrostatic pressure in a reservoir connected to the micropipette is varied in relation to a fixed reference.
A deformable object is aspirated using a pressure driving force—or suction pressure—ΔP, and the object is drawn within the pipette to a projection length LP. […] The bending modulus is measured by exerting small tensions on the membrane, to smooth out thermally driven surface undulations. […] Procedures for this important technique and its many modification are readily available to those skilled in the art. […]
Analogous to a lipid bilayer, at low but increasing aspiration pressures, the thermally undulating polymersome membrane is progressively smoothed, increasing the projected area logarithmically with tension, τ. From the slope of this increase (i.e., in tension units of mN/m) versus the fractional change, α, in vesicle area, the bending modulus, Kb, is calculated (see, e.g., Evans et al., 1990) with the following equation: […]

lipid probe diffusivity [1]: approximately 3×10^−8 cm^2/s | area expansion modulus, Ka [2]: ~180 mN/m
Compound: CCCCCCCC/C=C\CCCCCCCC(=O)O[C@H](COC(=O)CCCCCCCCCCCCCCCCC)COP(=O)([O-])OCC[N+](C)(C)C [SOPC, 1-stearoyl-2-oleoyl phosphatidylcholine]
